Experimental data reported in patent US9322895B2, “Method of determining metabolic function using magnetic resonance spectroscopic imaging” (Greater Glasgow Health Board, priority 2009, dated 2016).

How the values were obtained:
[1] = test system: anaesthetised rats following a middle cerebral artery occlusion (MCAO); test: Localised 1H spectroscopy (PRESS) with oxygen challenge in rats following MCAO; format: in vivo; settings: rat MCAO
Method: In-vivo MRI experiments were performed on anaesthetised rats following a middle cerebral artery occlusion (MCAO). The measurements included RARE T2 imaging, diffusion weighted imaging (DWI), perfusion weighted imaging (PWI), 1H localised spectroscopy and lactate difference imaging (LDI).
The first experiment used a standard localised spectroscopy sequence (PRESS) to acquire 1H spectra. One voxel was placed in the presumed penumbral region (as indicated by DWI/PWI mismatch), a second voxel was placed in the normal contralateral hemisphere (see FIG. 1)

[2] = standard temperature and pressure; cited from earlier work

Structure (SMILES) | lactate peak in the penumbra on returning to 100% inhaled air ([1]; after the oxygen challenge) | lactate peak in the penumbral region ([1]; challenge of 100% inhaled oxygen, voxel in DWI/PWI mismatch) | lactate peak in the contralateral region ([1]; challenge of 100% inhaled oxygen, voxel in normal contralateral hemisphere) | oxygen carried by 100 ml [2] [mL]
O=O [oxygen] | increased back to previous level | significant decrease | remained unchanged | 
FC1(F)C(F)(F)C(F)(F)C2(F)C(F)(F)C(F)(F)C(F)(F)C(F)(F)C2(F)C1(F)F (stereo not shown) [Perflorodecalin] |  |  |  | 49
